Experimental data published in paper PMC3116712 (ACS medicinal chemistry letters, 2011).

target: WT A/M2 proton channel (Influenza A virus, UniProt P0DOF5); type: cell-based; settings: TEVC
Sequence (P0DOF5 whole entry, looked up): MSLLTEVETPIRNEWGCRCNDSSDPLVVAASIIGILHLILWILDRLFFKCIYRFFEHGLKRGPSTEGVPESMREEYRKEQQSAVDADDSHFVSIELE

Compound | activity against WT A/M2 channel (in words)
O=S(=O)(O)C12CC3CC(CC(C3)C1)C2 [Compound 3, 1-adamantyl sulfonic acid] | inactive
O=C1CC2(CCCCC2)CC(=O)N1 [Compound 16] | only weakly active
NN1C(=O)CC2(CCCCC2)CC1=O [Compound 17] | only weakly active
OC1C2C3CC4C1C1C2CC3C41 (stereo not drawn) [Compound 19] | only moderate inhibition
Cl.NC12CC3CC(C1)CC(CO)(C3)O2 [Compound 25] | not active
CC12CC3(O)CC1(C)CC3(O)C2 [Compound 26] | only moderately active
